Measurements taken from patent US20240425456A1, “DEGRADER” (ASKA PHARMACEUTICAL CO., LTD., priority 2021, published 2024).

Columns and labels:
Format in all cases: cell-based
JAK1 = target: T1, JAK1 (Homo sapiens, UniProt P23458); test: Degradation-inducing effect on JAK in Jurkat cells (chemiluminescent Western blotting), JAK1; conditions: 1 μmol/L, 6 hours; for JAK protein ratio of Jurkat cells after treatment of each test compound: JAK1: corrected by GAPDH, DMSO as 100%
T1 construct: endogenous in cells; host or cells: Jurkat cells
T1 sequence (P23458 whole entry): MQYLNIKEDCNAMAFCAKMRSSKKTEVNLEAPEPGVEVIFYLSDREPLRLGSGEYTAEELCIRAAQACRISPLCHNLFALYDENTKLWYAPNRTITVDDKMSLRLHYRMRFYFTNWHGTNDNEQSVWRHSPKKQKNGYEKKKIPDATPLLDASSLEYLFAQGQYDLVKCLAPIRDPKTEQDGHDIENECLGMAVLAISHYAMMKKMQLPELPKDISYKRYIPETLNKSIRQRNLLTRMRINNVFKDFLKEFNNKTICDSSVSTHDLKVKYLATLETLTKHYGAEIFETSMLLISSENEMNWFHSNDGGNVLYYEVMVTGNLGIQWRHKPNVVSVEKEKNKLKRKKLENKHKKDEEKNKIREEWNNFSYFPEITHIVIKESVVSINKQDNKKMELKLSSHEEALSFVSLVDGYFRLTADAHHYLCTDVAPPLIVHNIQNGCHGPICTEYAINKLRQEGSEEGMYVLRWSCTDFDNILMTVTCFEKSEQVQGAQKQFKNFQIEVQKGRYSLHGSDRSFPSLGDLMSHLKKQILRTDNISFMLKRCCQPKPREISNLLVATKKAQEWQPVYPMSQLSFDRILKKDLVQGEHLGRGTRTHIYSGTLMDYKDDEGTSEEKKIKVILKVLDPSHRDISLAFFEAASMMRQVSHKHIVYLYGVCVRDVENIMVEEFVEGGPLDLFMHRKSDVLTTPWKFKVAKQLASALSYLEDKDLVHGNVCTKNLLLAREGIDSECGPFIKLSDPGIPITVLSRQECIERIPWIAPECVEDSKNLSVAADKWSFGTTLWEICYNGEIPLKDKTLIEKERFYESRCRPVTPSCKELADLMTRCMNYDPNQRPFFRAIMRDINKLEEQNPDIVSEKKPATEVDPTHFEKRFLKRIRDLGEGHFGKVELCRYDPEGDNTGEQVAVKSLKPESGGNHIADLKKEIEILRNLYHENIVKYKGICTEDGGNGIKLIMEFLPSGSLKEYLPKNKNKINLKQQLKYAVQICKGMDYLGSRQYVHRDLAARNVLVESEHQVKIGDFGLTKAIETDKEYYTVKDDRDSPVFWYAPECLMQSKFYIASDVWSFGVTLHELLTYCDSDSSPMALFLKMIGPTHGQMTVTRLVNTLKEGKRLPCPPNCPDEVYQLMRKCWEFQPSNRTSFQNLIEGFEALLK
Method: (§1) The degradation-inducing effect of the compound of the present invention on JAK family proteins was evaluated in vitro using Jurkat cells, of which cell line was derived from human leukemic T cells.
(§2) JAK1, JAK2, JAK3, and Tyk2-positive Jurkat cells were seeded at a density of 1×10^5 cells/mL on 10 cm diameter dishes and then cultured in RPMI 1640 medium (FUJIFILM Wako Pure Chemical: catalog number: 189-02025) containing 10% FBS (Thermo Fisher Scientific: catalog number: 10437-028) at 5% CO2 and 37° C. for 3 days. Then, each of the test compounds (compounds of Examples 1 to 11 and Comparative Examples 1 and 2) was added to the dish at a final concentration of 1 μmol/L, and the cells were cultured in the presence of the test compound for 6 hours. After that, the cell culture medium was collected in a 15 mL centrifuge tube (1000 rpm (240× g), room temperature, 5 min), followed by washing with PBS (1000 rpm (240× g), room temperature, 5 min). Then, the cells in the centrifuge tube were collected in a 1.5 mL tube (3000 rpm (860× g), 4° C., 5 min), lysed using RIPA buffer (25 mmol/L Tris-HCl (pH 7.4), 25 mmol/L NaCl, 0.5 mmol/L EGTA (pH 8.0), 0.1% SDS, 1% protease inhibitor), sonicated at ice temperature (cycles of [7.5 sec sonication, 5 sec off] for 5 min) and subjected to centrifugation (15000 rpm (21600× g), 4° C., 30 min). The thus-obtained supernatant was used as the protein solution. Using the BCA protein assay kit (Thermo Fisher Scientific: catalog number: 23225), the protein concentration of the protein solution of each test compound was measured according to the kit instructions, and then adjusted to 1.4 mg/mL with RIPA buffer. The thus-adjusted protein solutions were subjected to a fully automated Western blotting device (Simple Westerns Wes: proteinSimple) to detect the protein levels (JAK1, JAK2, JAK3, and Tyk2 as the target proteins, and GAPDH (Glyceraldehyde 3-phosphate dehydrogenase) as the internal standard protein) in the protein solutions by chemiluminescent Western blotting.
(§3) Furthermore, the luminescence levels of JAK1, JAK2, JAK3, and Tyk2 detected by chemiluminescent Western blotting were quantified numerically by using an analysis software (Compass software for Simple Western (version 4.0.0)) attached to the fully automated Western blotting device. The numerical values of the quantified luminescence levels were corrected by the protein levels of the internal standard protein, i.e., GAPDH, (target protein levels/GAPDH protein levels), and compared among the test compounds with dimethyl sulfoxide (DMSO) as 100%.

JAK2 = target: T2, JAK2 (Homo sapiens, UniProt O60674); test: Degradation-inducing effect on JAK in Jurkat cells (chemiluminescent Western blotting), JAK2; conditions: 1 μmol/L, 6 hours, corrected by GAPDH, DMSO as 100%
T2 construct: endogenous in cells; host or cells: Jurkat cells
T2 sequence (O60674 whole entry): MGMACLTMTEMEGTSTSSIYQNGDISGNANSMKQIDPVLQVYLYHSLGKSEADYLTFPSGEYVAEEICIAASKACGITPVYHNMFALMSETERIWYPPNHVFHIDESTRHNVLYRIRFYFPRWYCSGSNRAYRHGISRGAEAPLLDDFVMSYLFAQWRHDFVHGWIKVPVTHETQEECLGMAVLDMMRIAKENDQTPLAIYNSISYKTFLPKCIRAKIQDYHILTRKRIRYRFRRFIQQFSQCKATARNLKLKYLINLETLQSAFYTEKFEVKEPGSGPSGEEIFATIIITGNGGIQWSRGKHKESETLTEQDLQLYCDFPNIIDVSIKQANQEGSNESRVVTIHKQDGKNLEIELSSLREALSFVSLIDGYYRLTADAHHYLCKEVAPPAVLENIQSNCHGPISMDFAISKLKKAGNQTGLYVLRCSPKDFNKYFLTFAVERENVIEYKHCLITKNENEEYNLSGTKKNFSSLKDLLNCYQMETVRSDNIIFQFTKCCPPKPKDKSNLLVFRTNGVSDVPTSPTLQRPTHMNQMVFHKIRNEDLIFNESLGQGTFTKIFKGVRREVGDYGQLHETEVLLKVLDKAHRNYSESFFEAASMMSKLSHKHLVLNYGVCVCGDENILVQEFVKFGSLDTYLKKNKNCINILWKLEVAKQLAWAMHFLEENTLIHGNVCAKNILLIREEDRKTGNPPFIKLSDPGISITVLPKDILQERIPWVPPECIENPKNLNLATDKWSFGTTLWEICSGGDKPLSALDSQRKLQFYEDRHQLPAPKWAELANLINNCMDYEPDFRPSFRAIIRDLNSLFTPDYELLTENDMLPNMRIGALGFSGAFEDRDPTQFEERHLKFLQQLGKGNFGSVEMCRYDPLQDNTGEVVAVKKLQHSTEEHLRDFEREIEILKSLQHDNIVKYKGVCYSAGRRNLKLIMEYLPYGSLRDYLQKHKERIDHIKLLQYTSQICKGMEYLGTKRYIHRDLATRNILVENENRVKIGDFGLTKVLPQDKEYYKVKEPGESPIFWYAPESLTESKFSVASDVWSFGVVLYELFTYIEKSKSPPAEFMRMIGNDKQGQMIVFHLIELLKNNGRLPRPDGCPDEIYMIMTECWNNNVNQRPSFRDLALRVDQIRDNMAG
Method: as §1, §2, §3

Tyk2 = target: T3, Tyk2 (Homo sapiens, UniProt P29597); test: Degradation-inducing effect on JAK in Jurkat cells (chemiluminescent Western blotting), Tyk2; conditions: 1 μmol/L, 6 hours; for JAK protein ratio of Jurkat cells after treatment of each test compound: Tyk2: corrected by GAPDH, DMSO as 100%
T3 construct: endogenous in cells; host or cells: Jurkat cells
T3 sequence (P29597 whole entry): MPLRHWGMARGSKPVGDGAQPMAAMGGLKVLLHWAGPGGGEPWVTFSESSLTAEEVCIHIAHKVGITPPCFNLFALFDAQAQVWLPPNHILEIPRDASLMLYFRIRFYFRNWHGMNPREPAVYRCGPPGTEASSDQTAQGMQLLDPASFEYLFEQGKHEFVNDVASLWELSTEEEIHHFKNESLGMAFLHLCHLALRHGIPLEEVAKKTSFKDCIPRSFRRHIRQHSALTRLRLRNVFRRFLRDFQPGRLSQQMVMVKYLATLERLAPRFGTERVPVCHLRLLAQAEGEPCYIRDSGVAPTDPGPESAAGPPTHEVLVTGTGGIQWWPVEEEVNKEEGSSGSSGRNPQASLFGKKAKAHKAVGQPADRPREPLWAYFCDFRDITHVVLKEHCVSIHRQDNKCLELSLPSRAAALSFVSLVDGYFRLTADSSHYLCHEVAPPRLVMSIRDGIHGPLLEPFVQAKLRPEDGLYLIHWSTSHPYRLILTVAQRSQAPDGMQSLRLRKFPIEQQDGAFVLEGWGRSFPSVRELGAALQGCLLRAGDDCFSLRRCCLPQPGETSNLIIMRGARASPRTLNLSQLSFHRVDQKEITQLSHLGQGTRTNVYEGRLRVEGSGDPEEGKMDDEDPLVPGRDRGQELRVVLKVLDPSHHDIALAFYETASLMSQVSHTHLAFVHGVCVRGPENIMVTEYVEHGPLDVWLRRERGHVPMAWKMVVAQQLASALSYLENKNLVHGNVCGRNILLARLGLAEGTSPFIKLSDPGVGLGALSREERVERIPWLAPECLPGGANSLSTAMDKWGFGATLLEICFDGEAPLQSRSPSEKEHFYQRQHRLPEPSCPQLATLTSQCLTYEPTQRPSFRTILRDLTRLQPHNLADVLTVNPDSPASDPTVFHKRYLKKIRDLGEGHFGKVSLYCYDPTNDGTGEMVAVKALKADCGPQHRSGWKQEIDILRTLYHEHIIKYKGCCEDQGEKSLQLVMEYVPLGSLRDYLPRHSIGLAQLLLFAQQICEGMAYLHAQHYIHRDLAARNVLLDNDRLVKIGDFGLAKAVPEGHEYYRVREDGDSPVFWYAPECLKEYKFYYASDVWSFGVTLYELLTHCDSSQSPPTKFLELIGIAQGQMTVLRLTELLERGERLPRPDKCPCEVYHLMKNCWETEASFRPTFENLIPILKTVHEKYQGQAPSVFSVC
Method: as §1, §2, §3

JAK3 = target: T4, JAK3 (Homo sapiens, UniProt P52333); test: Degradation-inducing effect on JAK in Jurkat cells (chemiluminescent Western blotting), JAK3; conditions: 1 μmol/L, 6 hours, corrected by GAPDH, DMSO as 100%, read-out: JAK protein ratio of Jurkat cells after treatment of each test compound: JAK3
T4 construct: endogenous in cells; host or cells: Jurkat cells
T4 sequence (P52333 1-1124): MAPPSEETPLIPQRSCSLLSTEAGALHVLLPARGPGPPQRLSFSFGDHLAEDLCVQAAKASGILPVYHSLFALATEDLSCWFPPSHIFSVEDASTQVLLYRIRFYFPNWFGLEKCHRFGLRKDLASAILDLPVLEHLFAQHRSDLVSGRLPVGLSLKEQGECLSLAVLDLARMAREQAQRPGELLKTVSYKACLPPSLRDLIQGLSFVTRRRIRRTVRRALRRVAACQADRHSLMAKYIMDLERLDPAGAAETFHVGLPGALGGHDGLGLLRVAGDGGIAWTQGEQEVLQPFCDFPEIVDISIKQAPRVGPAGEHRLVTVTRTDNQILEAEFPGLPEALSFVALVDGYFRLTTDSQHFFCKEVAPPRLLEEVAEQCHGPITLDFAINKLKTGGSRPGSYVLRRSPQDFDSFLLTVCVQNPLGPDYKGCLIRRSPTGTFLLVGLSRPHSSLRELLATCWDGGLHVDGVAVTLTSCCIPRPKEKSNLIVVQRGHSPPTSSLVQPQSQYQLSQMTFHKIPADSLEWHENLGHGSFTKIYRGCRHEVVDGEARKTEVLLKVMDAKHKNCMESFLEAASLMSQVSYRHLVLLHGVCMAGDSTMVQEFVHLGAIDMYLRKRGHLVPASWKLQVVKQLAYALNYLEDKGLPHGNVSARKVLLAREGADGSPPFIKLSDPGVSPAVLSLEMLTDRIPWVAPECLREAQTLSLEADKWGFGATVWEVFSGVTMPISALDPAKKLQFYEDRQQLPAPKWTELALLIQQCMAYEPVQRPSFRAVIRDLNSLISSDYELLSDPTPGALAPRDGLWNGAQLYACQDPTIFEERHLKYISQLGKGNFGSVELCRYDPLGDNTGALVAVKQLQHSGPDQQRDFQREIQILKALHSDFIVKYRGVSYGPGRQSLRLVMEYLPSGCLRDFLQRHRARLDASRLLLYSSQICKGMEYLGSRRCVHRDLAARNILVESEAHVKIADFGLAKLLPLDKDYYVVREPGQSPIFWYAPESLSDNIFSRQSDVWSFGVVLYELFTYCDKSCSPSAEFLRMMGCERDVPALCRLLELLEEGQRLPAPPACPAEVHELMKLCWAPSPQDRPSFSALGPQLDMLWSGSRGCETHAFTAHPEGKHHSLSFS
Method: as §1, §2, §3

Row | Structure (SMILES) | JAK protein ratio of Jurkat cells after treatment of each test compound: JAK1 (JAK1) | JAK protein ratio of Jurkat cells after treatment of each test compound: JAK2 (JAK2) | protein level of Tyk2 (in words) (Tyk2) | JAK protein ratio of Jurkat cells after treatment of each test compound: Tyk2 (Tyk2) | JAK3 protein level relative to DMSO at 1 µM (JAK3) | protein level of JAK1 (in words) (JAK1)
1 | CNC(=O)c1cccc(Nc2cc(Nc3ccc(C(=O)NCCCCCCCCCC(=O)N[C@H](C(=O)N4C[C@H](O)C[C@H]4C(=O)NCc4ccc(-c5scnc5C)cc4)C(C)(C)C)cn3)ncc2C(N)=O)c1OC [Example 9, 6-((5-Carbamoyl-4-((2-methoxy-3-(methylcarbamoyl)phenyl)amino)pyridin-2-yl)amino)-N-(10-(((S)-1-((2S,4R)-4-hydroxy-2-((4-(4-methylthiazol-5-yl)benzyl)carbamoyl)pyrrolidin-1-yl)-3,3-dimethyl-1-oxobutan-2-yl)amino)-10-oxodecyl) nicotinamide] | 57.6% | 115.9% |  | 15.4% | 99.3% | reduced
2 | CNC(=O)c1cnc(Nc2ccc(C(=O)NCCCCCCCC(=O)N[C@H](C(=O)N3C[C@H](O)C[C@H]3C(=O)NCc3ccc(-c4scnc4C)cc3)C(C)(C)C)cn2)cc1Nc1cccc(C(=O)NC)c1OC [Example 3, 6-((5-((8-(((S)-1-((2S,4R)-4-Hydroxy-2-((4-(4-methylthiazol-5-yl)benzyl)carbamoyl)pyrrolidin-1-yl)-3,3-dimethyl-1-oxobutan-2-yl)amino)-8-oxooctyl)carbamoyl)pyridin-2-yl)amino)-4-((2-methoxy-3-(methylcarbamoyl)phenyl)amino)-N-methylnicotinamide] | 118.2% | 117.6% |  | 51.6% | 97.5% | 
3 | CNC(=O)c1cnc(Nc2ccc(C(=O)NCCCCCCCCCC(=O)N[C@H](C(=O)N3C[C@H](O)C[C@H]3C(=O)NCc3ccc(-c4scnc4C)cc3)C(C)(C)C)cn2)cc1Nc1cccc(C(=O)NC)c1OC [Example 5, 6-((5-((10-(((S)-1-((2S,4R)-4-Hydroxy-2-((4-(4-methylthiazol-5-yl)benzyl)carbamoyl)pyrrolidin-1-yl)-3,3-dimethyl-1-oxobutan-2-yl)amino)-10-oxodecyl)carbamoyl)pyridin-2-yl)amino)-4-((2-methoxy-3-(methylcarbamoyl)phenyl)amino)-N-methylnicotinamide] | 122.8% | 121.0% |  | 23.1% | 112% | 
4 | CNC(=O)c1cnc(Nc2ccc(C(=O)NCCCCCC(=O)N[C@H](C(=O)N3C[C@H](O)C[C@H]3C(=O)NCc3ccc(-c4scnc4C)cc3)C(C)(C)C)cn2)cc1Nc1cccc(C(=O)NC)c1OC [Example 2, 6-((5-((6-(((S)-1-((2S,4R)-4-Hydroxy-2-((4-(4-methylthiazol-5-yl)benzyl)carbamoyl)pyrrolidin-1-yl)-3,3-dimethyl-1-oxobutan-2-yl)amino)-6-oxohexyl)carbamoyl)pyridin-2-yl)amino)-4-((2-methoxy-3-(methylcarbamoyl)phenyl)amino)-N-methylnicotinamide] | 139.2% | 112.6% |  | 48.8% | 118% | 

More lines, now with the values ahead:

Row | JAK protein ratio of Jurkat cells after treatment of each test compound: JAK1 (JAK1) | JAK protein ratio of Jurkat cells after treatment of each test compound: JAK2 (JAK2) | protein level of Tyk2 (in words) (Tyk2) | JAK protein ratio of Jurkat cells after treatment of each test compound: Tyk2 (Tyk2) | JAK3 protein level relative to DMSO at 1 µM (JAK3) | protein level of JAK1 (in words) (JAK1) | Structure (SMILES)
5 | 108.7% | 101.7% | not reduced | 100.1% | 89.8% |  | CNC(=O)c1cnc(Nc2ccc(F)cn2)cc1Nc1cccc(C(=O)OCCCCCCCCCC(=O)N[C@H](C(=O)N2C[C@H](O)C[C@H]2C(=O)NCc2ccc(-c3scnc3C)cc2)C(C)(C)C)c1OC [Comparative Example 2, 10-(((S)-1-((2S,4R)-4-Hydroxy 2-((4-(4-methylthiazol-5-yl)benzyl)carbamoyl)pyrrolidin-1-yl)-3,3-dimethyl-1-oxobutan-2-yl)amino)-10-oxodecyl 3-((2-((5-fluoropyridin-2-yl)amino)-5-(methylcarbamoyl)pyridin-4-yl)amino)-2-methoxybenzoate, reference compound]
6 | 111.9% | 121.3% |  | 82.8% | 114% |  | CNC(=O)c1cnc(Nc2ccc(C(=O)NCCCC(=O)N[C@H](C(=O)N3C[C@H](O)C[C@H]3C(=O)NCc3ccc(-c4scnc4C)cc3)C(C)(C)C)cn2)cc1Nc1cccc(C(=O)NC)c1OC [Example 1]
